Measured values reported in patent US12629410B2, “Multi-antigenic peptide mimics of gonococcal lipo-oligosaccharide (LOS) epitopes” (priority 2019, dated 2026).
“Also recorded” adds a separate entry of the source. Bridges are numbered along the chain shown (N, C = ends).

Assays:
mAb 2C7 = test: Inhibition ELISA: inhibition of mAb 2C7 binding to immobilized gonococcal LOS
Text: FIGS. 1A-1B show the structure and characterization of one of the peptide mimics described herein (also referred to as TMCP2). […] The 2C7 mimitope is indicated in shown as the sequence “H2C-CO-GPIPVLDENGLFAPGPC” (SEQ ID NO: 1) Cyclization is maintained through a thioether bond. The reverse peptide mimic core is represented the schematic of the peptide mimic as “Ac-β-Ala-Glu[Glu-OH]2.” The reverse peptide mimic core links to each cyclic peptide through a lysine (K) residue.
In order to compare antigenicity of peptide mimic Core Peptide 2 (monomeric cyclic CP2) and composite TMCP2 compounds with LOS that expresses the 2C7 epitope, inhibition ELISA was performed using mAb 2C7 reacted with the individual compounds to assess inhibition of binding (residual binding) of mAb to LOS by each compound. Microtiter wells were coated with LOS (80 μg/ml in PBS) purified from strain FA1090. Wells were washed and blocked with PBS-0.05% Tween 20. mAb 2C7 (0.04 μg/ml) either alone or containing monomeric cyclic peptide CP2 (1.07 to 1070 μM) or composite TMCP2 (concentrations ranging from […]) was dispended into LOS coated wells. Residual binding of 2C7 mAb was measured with anti-mouse IgG conjugated to alkaline phosphatase. Bound IgG was quantitated using a mouse IgG standard curve and percent inhibition determined compared to reaction mixtures that […].
Attempts to measure mAb 2C7 (7) binding directly to immobilized peptide mimic Core Peptide 2 (abbreviated CP2 in FIG. 1A) and composite TMCP2 by ELISA were not successful. The possibility of poor capture of the peptides by the microtiter wells was considered and therefore used an ELISA to measure inhibition of binding (residual binding) of mAb 2C7 to immobilized gonococcal LOS that had been reacted with increasing concentrations of the peptides (FIG. 1B).

15253 ΔlgtG LOS = test: ELISA of immune sera against 2C7-negative LOS (specificity); format: in vivo, N. gonorrhoeae; conditions: sera of mice immunized with TMCP2 + GLA-SE
Protocol: Microtiter wells were coated with LOS purified from 15253 or 15253 ΔlgtG (80 μg/ml) in PBS as described previously. Serial dilutions of immune sera were dispensed into wells and bound anti-LOS Ab was disclosed with anti-mouse IgG conjugated to alkaline phosphatase. A standard curve for mouse IgG was generated by coating wells with anti-mouse IgG (Sigma) and pure mouse IgG (Sigma) also as described previously.

Substance: [(CH2-CO-GPIPVLDENGLFAPGPC)-K-OH]4 ({CH2CO}-GPIPVLDENGLFAPGPCK-OH; thioether N-17; also: tetrameric MAP) [TMCP2]
- fold lower molar concentration of TMCP2 (compared to CP2) required to achieve 50% inhibition (mAb 2C7): ~4 fold
- IC50 (mAb 2C7; mAb 2C7 0.04 μg/ml, LOS-coated wells, read-out: concentration giving 50% inhibition of mAb 2C7 binding to immobilized 15253 LOS): 25 µM
- IgG reactivity of immune sera with 15253 ΔlgtG LOS (15253 ΔlgtG LOS): non-reactivity; also recorded: no IgG binding
